Data from the Deep4Chem optical property database.

Experiment: solvent given as SMILES

CCCCN1C(=O)c2cc(Oc3ccc(C(C)(C)C)cc3)c3c4c(Oc5ccc(C(C)(C)C)cc5)cc5c(=O)n6c(c7cc(Oc8ccc(C(C)(C)C)cc8)c(c8c(Oc9ccc(C(C)(C)C)cc9)cc(c2c38)C1=O)c4c57)=Cc1ccc2ccccc2[n+]1[B-]6(F)F showed an absorption maximum (in ClCCl) of 648 nm.
In the case of COc1ccc(C2=CC(c3ccccc3)=C(c3ccccc3)C2)c2ccccc12, the absorption maximum (in ClCCl) is reported as 354 nm.
For CN(c1ccccc1)c1ccc(N(c2ccccc2)c2ccc3ccc4c(N(c5ccccc5)c5ccc(N(C)c6ccccc6)cc5)ccc5ccc2c3c54)cc1, the absorption maximum (in ClCCl) was 435 nm.
With COc1c2ccccc2c(OC)c2c(C#Cc3ccccc3)c3cc4ccccc4cc3c(C#Cc3ccccc3)c12 the absorption maximum (in ClCCl) was 704 nm.
For CN1C2=Nc3n(C)c4ccccc4[n+]3CN2c2ccccc21, the absorption maximum (in CO) was 339 nm.
With CC1=C(C#Cc2ccccc2)C(C)=[N+]2C1=C(c1ccccc1)c1c(C)c(C#Cc3ccccc3)c(C)n1[B-]2(F)F the absorption maximum (in C1CCOC1) was 573 nm and the absorption maximum (in ClCCl) was 561 nm.
Compound Nc1ccc2c(-c3ccccc3C(=O)[O-])c3ccc(=[NH2+])cc-3oc2c1 has an absorption maximum (in CC#N) of 500 nm, an absorption maximum (in CCO) of 499 nm and an absorption maximum (in CN(C)C=O) of 515 nm. The absorption maximum (in O) was 497 nm.
c1ccc(-c2nc(-c3ccccc3)nc(-c3ccc(-n4c5ccccc5c5c6c(ccc54)-c4ccccc4C6(c4ccccc4)c4ccccc4)cc3)n2)cc1 showed an absorption maximum (in Cc1ccccc1) of 372 nm.
In the case of c1ccc(-c2ccc(-c3nc(-c4ccccc4)c(N(c4ccccc4)c4ccccc4)[se]3)cc2)cc1, the absorption maximum (in ClC(Cl)Cl) is reported as 394 nm.
Cc1cc(C)c(C2=C3C=c4c(c5ccccc5c5ccccc45)=[N+]3[B-](F)(F)n3c2cc2c4ccccc4c4ccccc4c23)c(C)c1 showed an absorption maximum (in C1CCCCC1) of 674 nm, an absorption maximum (in C1CCOC1) of 673 nm and an absorption maximum (in CC#N) of 666 nm. It also gave an absorption maximum (in Cc1ccccc1) of 680 nm and an absorption maximum (in ClCCl) of 673 nm.
For c1ccc(-c2nn(-c3ccccc3)c3nc4ccccc4cc23)cc1, the absorption maximum (in C1CCCCC1) was 401.45 nm, the absorption maximum (in C1CCOC1) was 398.57 nm and the absorption maximum (in CC#N) was 396.83 nm. It also gave an absorption maximum (in CC(C)=O) of 396.04 nm, an absorption maximum (in CCCCCl) of 398.72 nm and an absorption maximum (in CCCCOCCCC) of 398.57 nm. The absorption maximum (in CN(C)C=O) was 397.93 nm.
For COC(=O)c1[nH]c(-c2ccc(OC)cc2)c2nnc3ccc(OC)cc3c12, the absorption maximum (in ClCCl) was 401 nm.
c1cnc(-c2c3ccccc3c(-c3cncnc3)c3ccccc23)nc1 gave an absorption maximum (in CCO) of 391 nm and an absorption maximum (in ClCCl) of 394 nm.
CCCCC(CC)Cn1c2cc(-c3ccc(N(c4ccccc4)c4ccccc4)cc3)c(C#N)cc2c2cc(C#N)c(-c3ccc(N(c4ccccc4)c4ccccc4)cc3)cc21 (stereo not given) showed an absorption maximum (in ClCCl) of 369 nm.
Compound C#Cc1cccc2ccccc12 has an absorption maximum (in C1CCCCC1) of 310 nm, an absorption maximum (in CC#N) of 306 nm and an absorption maximum (in CO) of 309 nm. The absorption maximum (in ClCCl) was 312 nm.
For Cn1c2ccccc2c(=O)c2ccccc21, the absorption maximum (in CS(C)=O) was 403 nm and the absorption maximum (in O) was 394 nm.
In the case of C(=C\c1cc(/C=C/c2ccccc2)cc(/C=C/c2ccccc2)c1)/c1ccccc1, the absorption maximum (in ClCCl) is reported as 317 nm.
CN(C)c1ccc(/C=C/C=C/C2=NC3C(=O)NC(N)=NC3N2[C@H]2C[C@H](O)[C@@H](CO)O2)cc1 (stereo not given in full) gave an absorption maximum (in C1COCCO1) of 352 nm, an absorption maximum (in CC#N) of 349 nm and an absorption maximum (in CO) of 343 nm.
In the case of CCCCCCCCCCCCOc1cc2c(cc1OCCCCCCCCCCCC)C1=C3C(=O)N4C=Cc5cc(OCCCCCCCCCCCC)c(OCCCCCCCCCCCC)cc5C4=C3C(=O)N1C=C2, the absorption maximum (in CN(C)C=O) is reported as 592 nm and the absorption maximum (in ClC(Cl)Cl) is reported as 590 nm.
Compound COc1c(Br)c2cc(=O)oc3ccc4cccc1c4c32 has an absorption maximum (in CC1CCCO1) of 475 nm.
COc1ccc2cc(-c3cc(-c4ccccc4)c4n3[B-](F)(F)[N+]3=C5C=NC=CN5[B-](F)(F)[N+]3=C4)ccc2c1 showed an absorption maximum (in ClCCl) of 536 nm.
For FC(F)(F)c1ccc(-c2nc(-c3ccc(C(F)(F)F)cc3)n3ccccc23)cc1, the absorption maximum (in ClC(Cl)Cl) was 325 nm.
Work on CCCCCCCCOc1ccc2c3cccc4c(OCCCCCCCC)ccc(c5cccc1c52)c43 yielded an absorption maximum (in C1CCOC1) of 460 nm, an absorption maximum (in Cc1ccccc1) of 462 nm and an absorption maximum (in ClC(Cl)(Cl)Cl) of 462 nm. For the same compound, the absorption maximum (in ClC(Cl)Cl) was 462 nm, the absorption maximum (in ClCCl) was 461 nm and the absorption maximum (in c1ccncc1) was 464 nm.
